Structures are written as SMILES. Where only a bound is given, the exact number is not on record here.

This test has as its target T1, FLT3 kinase (Homo sapiens, UniProt P36888).
T1 construct: purchased SignalChem
T1 sequence (P36888 27-993): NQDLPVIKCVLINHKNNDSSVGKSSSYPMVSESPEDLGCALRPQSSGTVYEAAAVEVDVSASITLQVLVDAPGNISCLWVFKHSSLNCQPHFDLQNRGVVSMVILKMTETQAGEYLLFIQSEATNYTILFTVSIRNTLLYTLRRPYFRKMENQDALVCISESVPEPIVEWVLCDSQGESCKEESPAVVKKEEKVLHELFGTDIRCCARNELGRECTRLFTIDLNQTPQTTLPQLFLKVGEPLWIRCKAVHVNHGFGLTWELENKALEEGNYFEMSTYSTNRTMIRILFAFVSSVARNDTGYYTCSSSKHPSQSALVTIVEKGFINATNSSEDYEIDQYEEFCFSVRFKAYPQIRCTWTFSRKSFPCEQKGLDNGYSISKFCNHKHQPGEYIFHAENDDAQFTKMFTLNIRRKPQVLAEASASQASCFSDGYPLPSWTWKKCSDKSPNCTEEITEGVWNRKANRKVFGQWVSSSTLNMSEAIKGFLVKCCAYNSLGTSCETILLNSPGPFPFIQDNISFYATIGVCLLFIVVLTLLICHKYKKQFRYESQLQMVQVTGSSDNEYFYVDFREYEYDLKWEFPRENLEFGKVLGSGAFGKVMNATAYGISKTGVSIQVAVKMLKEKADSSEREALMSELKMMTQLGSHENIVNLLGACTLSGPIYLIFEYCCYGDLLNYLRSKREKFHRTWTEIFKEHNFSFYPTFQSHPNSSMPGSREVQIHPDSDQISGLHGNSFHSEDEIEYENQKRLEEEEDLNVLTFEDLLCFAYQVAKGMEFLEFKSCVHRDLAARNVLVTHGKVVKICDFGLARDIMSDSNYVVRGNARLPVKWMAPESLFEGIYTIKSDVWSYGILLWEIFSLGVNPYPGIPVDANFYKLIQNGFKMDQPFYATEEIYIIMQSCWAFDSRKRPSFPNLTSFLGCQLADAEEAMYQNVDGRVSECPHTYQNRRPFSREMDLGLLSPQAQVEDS
Description: FLT3 kinase assay (AlphaScreen). It counts as biochemical. As to conditions: read-out: Ranking of IC50 values, FLT3. The gist of the method: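 AlphaScreen detection of biotin-poly(Glu4:Tyr1) phosphorylation by 1.5 ng recombinant FLT3 (10 μM ATP, pH 7.0 MOPS, 10 mM MgCl2; 30 °C, 30 min, EDTA quench). IC50 values derived from serially diluted compound tested in duplicate.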
For `Cc1cc(CN2CCOCC2)ccc1-c1cc2c(s1)Cc1c(-c3ccc4cnn(C)c4c3)n[nH]c1-2` [Compound 91, 4-(3-methyl-4-(3-(1-methyl-1H-indazol-6-yl)-1,4-dihydrothieno [2′,3′:4,5]cyclopenta [1,2-c]pyrazol-6-yl)benzyl)morpholine], the IC50 lay in the range of 1 to 10 nM.
`CN1CCN(c2ccc(-c3cc4c(s3)Cc3c(-c5ccc6cnn(C)c6c5)n[nH]c3-4)cn2)CC1` [Compound 85, 3-(1-methyl-1H-indazol-6-yl)-6-(6-(4-methyl-piperazin-1-yl)pyridin-3-yl)-1,4-dihydrothieno [2′,3′:4,5]cyclopenta [1,2-c]pyrazole]: the IC50 is < 1 nM.
Regarding `Cn1ncc2ccc(-c3n[nH]c4c3Cc3sc(-c5ccnc(Cl)c5)cc3-4)cc21` [Compound 86, 6-(2-chloropyridin-4-yl)-3-(1-methyl-1H-indazol-6-yl)-1,4-dihydrothieno [2′,3′:4,5]cyclopenta [1,2-c]pyrazole], the IC50 is 1 to 10 nM.
For `CN(C)Cc1ccc(-c2cc3c(s2)Cc2c(-c4ccc5cnn(C)c5c4)n[nH]c2-3)cn1` [Compound 93, N,N-dimethyl-1-(5-(3-(1-methyl-1H-indazol-6-yl)-1,4-dihydrothieno [2′,3′:4,5]cyclopenta [1,2-c]pyrazol-6-yl)pyridin-2-yl)methanamine] the value was 1 to 10 nM; for `Cc1n[nH]c2cc(-c3n[nH]c4c3Cc3sc(-c5ccc(CN6CCOCC6)cc5)cc3-4)ccc12` [Compound 81, 4-(4-(3-(3-methyl-1H-indazol-6-yl)-1,4-dihydro-thieno[2′,3′:4,5]cyclopenta [1,2-c]pyrazol-6-yl)benzyl)morpholine], 1 to 10 nM.
For the compound `Cn1ncc2ccc(-c3n[nH]c4c3Cc3sc(-c5ccc(N)nc5)cc3-4)cc21` [Compound 92, 5-(3-(1-methyl-1H-indazol-6-yl)-1,4-dihydro-thieno[2′,3′:4,5]cyclopenta [1,2-c]pyrazol-6-yl) pyridin-2-amine], the IC50 is < 1 nM.
For `CN1CCN(Cc2ccc(-c3cc4c(s3)Cc3c(-c5ccc6cn[nH]c6c5)n[nH]c3-4)cc2)CC1` [Compound 83, 3-(1H-indazol-6-yl)-6-(4-((4-methylpiperazin-1-yl)methyl)phenyl)-1,4-dihydrothieno[2′,3′:4,5] cyclopenta[1,2-c]pyrazole] the value was < 1 nM; for `CN(C)Cc1ccc(-c2cc3c(s2)Cc2c(-c4ccc5cnn(C)c5c4)n[nH]c2-3)cc1` [Compound 94, N,N-dimethyl-1-(4-(3-(1-methyl-1H-indazol-6-yl)-1,4-dihydrothieno [2′,3′:4,5]cyclopenta [1,2-c]pyrazol-6-yl)phenyl)methanamine], < 1 nM.
To `Cn1ncc2ccc(-c3n[nH]c4c3Cc3sc(-c5ccc(CN6CCOCC6)cc5OC(F)(F)F)cc3-4)cc21` [Compound 90, 4-(4-(3-(1-methyl-1H-indazol-6-yl)-1,4-dihydro-thieno[2′,3′:4,5]cyclopenta [1,2-c]pyrazol-6-yl)-3-(trifluoromethoxy)benzyl) morpholine] belongs 1 to 10 nM; to `CN1CCN(c2cc(-c3cc4c(s3)Cc3c(-c5ccc6cnn(C)c6c5)n[nH]c3-4)ccn2)CC1` [Compound 87, 3-(1-methyl-1H-indazol-6-yl)-6-(2-(4-methyl-piperazin-1-yl)pyridin-4-yl)-1,4-dihydrothieno [2′,3′:4,5]cyclopenta [1,2-c]pyrazole], < 1 nM; to `Cn1ncc2ccc(-c3n[nH]c4c3Cc3sc(-c5ccc(CN6CCOCC6)c(F)c5F)cc3-4)cc21` [Compound 88, 4-(2,3-difluoro-4-(3-(1-methyl-1H-indazol-6-yl)-1,4-dihydrothieno [2′,3′:4,5]cyclopenta [1,2-c]pyrazol-6-yl)benzyl)morpholine], 1 to 10 nM.
As to `CN1CCN(Cc2ccc(-c3cc4c(s3)Cc3c(-c5ccc6cnn(C)c6c5)n[nH]c3-4)cc2)CC1` [Compound 84, 3-(1-methyl-1H-indazol-6-yl)-6-(4-((4-methylpiperazin-1-yl)methyl)phenyl)-1,4-dihydrothieno [2′,3′:4,5]cyclopenta [1,2-c]pyrazole], the IC50 is < 1 nM.
For the compound `Cn1nnc2ccc(-c3n[nH]c4c3Cc3sc(-c5ccc(CN6CCOCC6)cc5)cc3-4)cc21` [Compound 89, 4-(4-(3-(1-methyl-1H-benzo[d][1,2,3]triazol-6-yl)-1,4-dihydrothieno [2′,3′:4,5]cyclopenta [1,2-c]pyrazol-6-yl)benzyl)morpholine], the IC50 fell in the range of 1 to 10 nM.
For `Cn1ncc2ccc(-c3n[nH]c4c3Cc3sc(-c5ccc(N6CCOCC6)nc5)cc3-4)cc21` [Compound 82, 4-(5-(3-(1-methyl-1H-indazol-6-yl)-1,4-dihydro-thieno[2′,3′:4,5]cyclopenta [1,2-c]pyrazol-6-yl)pyridin-2-yl)morpholine] the value was 1 to 10 nM; for `COc1ccc(-c2cc3c(s2)Cc2c(-c4ccc5cnn(C)c5c4)n[nH]c2-3)cn1` [Compound 4, 6-(6-methoxypyridin-3-yl)-3-(1-methyl-1H-indazol-6-yl)-1,4-dihydrothieno [2′,3′:4,5]cyclopenta[1,2-c] pyrazole], 1 to 10 nM.

Source of the values: patent US12448394B2, “Heterocyclic pyrazole derivatives as type III receptor tyrosine kinase inhibitors” (DEVELOPMENT CENTER FOR BIOTECHNOLOGY, priority 2019, dated 2025).
